Results reported in patent publication US5690957A, “Prostaglandin derivatives” (Ono Pharmaceutical Co., Ltd., priority 1995, dated 1997).

Tests used:
[1] = Blood flow increasing effect in anesthetized rats (laser-Doppler cutaneous blood flow, AUC); assay type: in vivo; conditions: i.v., rat
Description: (§1) The blood flow increasing effect and hypotensive effect of the compounds of the present invention were determined by the following experiment.
(§2) Male rats weighing 200-350 g were anesthetized with urethane (25% urethane, 6 ml/kg, s.c.). The carotid artery and jugular vein were cannulated with polyethylene tubes for measurement of blood pressure and for drug injection, respectively. Blood pressure was obtained with a disposable pressure transducer kit (Spectramed, Ltd) and recorded with a recticoder (model RJG-4128, Nihon kohden, Ltd). Blood flow was monitored as cutaneous blood flow of the dorsum pedis using an attachment-type laser-Doppler flowmeter (model ALF21, Advance, Ltd). Measurements were taken until the values recovered to the level observed before injection of drugs. Injection time was about 10 seconds. The hypotensive effect and blood flow increasing effect were calculated as the maximal hypotensive activity (mmHg) and the area under the curve (AUC) after injection of drugs, respectively.
(§3) The results were represented by the dose required to obtain an effective increase in blood flow (main effect), and by the hypotensive effect (side effect) at the same dose.
(§4) The compounds of the present invention were administered in the form of a liposome formulation (as prepared in Example 4 below). As a comparative compound, PGE1 1-decanoyloxyethyl ester (described in Example 10 of the specification of Japanese Patent Kokai No. 59-206349) was administered in the form of a lipid emulsion (prepared in Reference Example 8 in the present specification).
The effectiveness of increasing blood flow was determined by the following method. […] In the above-described experimental assessment system for the compounds of the present invention, the AUG for this PGE1 lipid emulsion (5 μg/kg, i.v.) was 771 on the blood flow increasing effect; thus this value was chosen as an effective value for increase in blood flow.

[2] = Hypotensive effect in anesthetized rats (carotid artery blood pressure); assay type: in vivo; conditions: rat; for Hypotensive effect, Maximum hypotension on dose (A): at dose (A) giving AUC = 771, i.v.; for Hypotensive effect, Maximum hypotension: i.v.
Description: as §1, §2, §3, §4

[3] = dose 3 μg/kg, Examples as liposome formulation, comparative compound as lipid emulsion
[4] = dose 10 μg/kg, Examples as liposome formulation, comparative compound as lipid emulsion
[5] = dose 30 μg/kg, liposome formulation
[6] = Examples as liposome formulation, comparative compound as lipid emulsion
[7] = dose 1 μg/kg, Examples as liposome formulation, comparative compound as lipid emulsion

Row | SMILES | Blood flow increasing effect, Total AUC [1, 3] | Blood flow increasing effect, Total AUC [1, 4] | Blood flow increasing effect, Total AUC [1, 5] | Blood flow increasing effect, Dose (A) required to obtain AUC = 771 [1, 6] [µg/kg] | Hypotensive effect, Maximum hypotension on dose (A) [2, 6] [mmHG] | Hypotensive effect, Maximum hypotension [2, 3] [mmHg] | Hypotensive effect, Maximum hypotension [2, 4] [mmHg] | Hypotensive effect, Maximum hypotension [2, 5] [mmHg] | Blood flow increasing effect, Total AUC [1, 7] | Hypotensive effect, Maximum hypotension [2, 7] [mmHg]
1 | CCCCCCCCCCCCCCCCOCC(=O)OCCOC(=O)CCCCCC[C@H]1C(=O)C[C@@H](O)[C@@H]1/C=C/[C@@H](O)CCCCC [Example 2, PGE1 2-(hexadecyloxyacetoxy)ethyl ester] | 329 | 807 | 3248 | 8.14 | 6.1 | 3 | 7 | 20 |  | 
2 | CCCCCCCCCC(=O)OC(C)OC(=O)CCCCCC[C@H]1C(=O)C[C@@H](O)[C@@H]1/C=C/[C@@H](O)CCCCC (some centres unmarked) [Comparative compound, PGE1 1-decanoyloxyethyl ester, reference compound] | 222 | 498 |  | 16.70 | 30.2 | 9 | 18 |  | 92 | 1
3 | CCCCCCCCCCCCOCC(=O)OCCOC(=O)CCCCCC[C@H]1C(=O)C[C@@H](O)[C@@H]1/C=C/[C@@H](O)CCCCC [Example 3, PGE1 2-(dodecyloxyacetoxy)ethyl ester] | 4028 | 5391 |  | 1.14 | 2.8 | 9 | 9 |  | 227 | 2
4 | CCCCCCCCCCCC(=O)OCCOC(=O)CCCCCC[C@H]1C(=O)C[C@@H](O)[C@@H]1/C=C/[C@@H](O)CCCCC [Example 1, PGE1 (dodecanoyloxy)ethyl ester] | 1914 | 3528 |  | 1.47 | 4.3 | 7 | 13 |  | 175 | 3
